Source: patent US20110020436A1 (priority 2006, published 2011)

How the values were obtained:
stressed skin flaps = details: animals with pineal glands removed, versus no melatonin; cited from earlier work
iNOS = details: macrophage cells after exposure to LPS; cited from earlier work
[1] = Sleepiness side effect in the case subjects; type: in vivo, human; details: topical application
Source text: This is probably due to either the local metabolism of melatonin or to the metabolism of melatonin in the liver, which is its primary site of metabolism (Slominski).

COX-2 = details: macrophage cells after exposure to LPS; cited from earlier work
COX-1 = details: macrophage cells; cited from earlier work
paw swelling and edema = details: systemic melatonin after injection of a noxious stimulant; cited from earlier work

Compound: COc1ccc2[nH]cc(CCNC(C)=O)c2c1 [melatonin, N-acetyl-5-methoxytryptamine]
- levels of MDA and nitric oxide (stressed skin flaps): decreased levels
- levels of glutathione (stressed skin flaps): increased levels
- activation of iNOS (iNOS): inhibits the activation
- sleepiness [1]: no sleepiness
- activation of COX-2 (COX-2): inhibits the activation
- COX-1 function (COX-1): does not inhibit
- swelling and edema of the paw (paw swelling and edema): reduction of swelling and edema
